According to the supplement of paper PMC10307832:

How the values were obtained:
Assay in all cases: relative viability (nuclei count vs DMSO), 5 days (fraction); higher = more cells survive
[1] = compound: OCc1c[nH]c2ccccc12 [Indole-3-carbinol] + Nc1nc2[nH]cc(CCc3ccc(C(=O)N[C@@H](CCC(=O)O)C(=O)O)cc3)c2c(=O)[nH]1 [Pemetrexed] (partner 0.2 µM)
In short: (§1)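 The day after seeding in 1536-well plates, lung cancer cell lines were treated by pin tool with a single drug, or with a fixed anchor-drug dose together with five library-drug doses (not always all listed) in √10 steps. After 5 days, a combined fix-and-stain solution (final 0.05% Triton X-100, 1% formaldehyde, 1 ug/ml Hoechst) was added. Nuclei counted on 4× images gave relative viability as treated counts over vehicle counts, reported as the median of duplicate plates.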

[2] = compound: OCc1c[nH]c2ccccc12 [Indole-3-carbinol] + CC(=O)c1c(C)c2cnc(Nc3ccc(N4CCNCC4)cn3)nc2n(C2CCCC2)c1=O [Palbociclib] (partner 0.5 µM)
In short: as §1

[3] = compound: OCc1c[nH]c2ccccc12 [Indole-3-carbinol] + CC(C)C[C@H](NC(=O)[C@H](Cc1ccccc1)NC(=O)c1cnccn1)B(O)O [Bortezomib] (partner 0.002 µM)
In short: as §1

[4] = compound: OCc1c[nH]c2ccccc12 [Indole-3-carbinol] + CS(=O)(=O)CCNCc1ccc(-c2ccc3ncnc(Nc4ccc(OCc5cccc(F)c5)c(Cl)c4)c3c2)o1 [Lapatinib] (partner 2 µM)
In short: as §1

[5] = compound: OCc1c[nH]c2ccccc12 [Indole-3-carbinol] + CS(=O)(=O)N1CCN(Cc2cc3nc(-c4cccc5[nH]ncc45)nc(N4CCOCC4)c3s2)CC1 [Pictilisib] (partner 1 µM)
In short: as §1

Cell Line	relative viability ([1]; first compound 0.253 µM)	relative viability ([1]; first compound 0.8 µM)	relative viability ([1]; first compound 2.53 µM)	relative viability ([1]; first compound 8 µM)	relative viability ([2]; first compound 0.253 µM)	relative viability ([2]; first compound 0.8 µM)	relative viability ([2]; first compound 2.53 µM)	relative viability ([2]; first compound 8 µM)	relative viability ([3]; first compound 0.253 µM)	relative viability ([3]; first compound 0.8 µM)	relative viability ([3]; first compound 2.53 µM)	relative viability ([3]; first compound 8 µM)	relative viability ([4]; first compound 0.253 µM)	relative viability ([4]; first compound 0.8 µM)	relative viability ([4]; first compound 2.53 µM)	relative viability ([4]; first compound 8 µM)	relative viability ([5]; first compound 0.253 µM)	relative viability ([5]; first compound 0.8 µM)	relative viability ([5]; first compound 2.53 µM)	relative viability ([5]; first compound 8 µM)
NCI-H1355	1.08	1.08	0.983	1.06	0.401	0.379	0.43	0.392	1.25	1.18	1.2	1.17	1.08	0.981	0.975	0.887	0.324	0.415	0.435	0.428
NCI-H1437	0.311	0.337	0.312	0.318	0.296	0.346	0.296	0.305	0.503	0.532	0.498	0.466	0.818	0.868	0.781	0.761	0.535	0.438	0.466	0.433
NCI-H1650	0.377	0.328	0.47	0.449	0.376	0.341	0.338	0.351	0.19	0.192	0.207	0.194	0.892	0.561	0.875	0.716	0.521	0.399	0.547	0.6
NCI-H1651	0.576	0.539	0.686	0.605	0.53	0.521	0.524	0.495	0.917	0.938	0.98	0.874	0.619	0.69	0.921	0.704	0.613	0.486	0.499	0.554
NCI-H1666	0.882	0.852	0.878	0.826	0.667	0.694	0.667	0.626	0.892	0.873	0.865	0.786	0.76	0.584	0.581	0.7	0.339	0.548	0.539	0.394
NCI-H1734	0.413	0.417	0.454	0.418	0.352	0.376	0.331	0.31	0.974	1.11	0.966	0.893	0.979	1.02	1.04	0.955	0.404	0.423	0.492	0.487
NCI-H1755	0.422	0.436	0.435	0.386	0.489	0.444	0.487	0.423	1.02	0.939	0.976	0.995	1.06	0.978	1.07	1.03	0.401	0.318	0.442	0.424
NCI-H1792	0.984	0.993	0.704	0.858	0.74	0.634	0.675	0.697	0.965	0.89	1.03	0.934	0.913	0.945	0.903	0.93	0.217	0.221	0.257	0.245
NCI-H1915	0.466	0.527	0.513	0.511	0.5	0.521	0.532	0.486	0.968	0.881	0.973	0.977	1.01	0.968	0.993	0.972	0.901	0.858	0.949	0.926
NCI-H1975	0.288	0.294	0.293	0.311	0.699	0.704	0.554	0.644	0.409	0.328	0.436	0.365	0.966	0.847	0.936	0.876	0.293	0.305	0.326	0.288
NCI-H1993	0.59	0.69	0.548	0.567	0.713	0.635	0.664	0.521	1.09	1.38	1.14	1.17	0.827	0.839	0.791	0.773	0.795	0.802	0.808	0.806
NCI-H2009	1.03	1.07	1.07	1.06	0.213	0.188	0.169	0.226	1.14	1.09	0.998	0.933	1.02	0.929	0.695	0.872	0.842	0.743	0.763	0.837
NCI-H2023	0.245	0.269	0.252	0.258	0.396	0.469	0.334	0.375	0.903	1.02	0.887	0.939	0.817	0.882	0.778	0.891	0.218	0.237	0.23	0.236
NCI-H2085	0.965	0.927	0.932	0.758	0.469	0.492	0.451	0.439	1.07	1.15	1.14	0.967	0.855	0.789	0.8	0.828	0.41	0.389	0.444	0.503
NCI-H2087	0.706	0.703	0.705	0.63	0.193	0.278	0.27	0.262	0.815	0.967	0.963	0.678	1.32	0.952	1.12	0.814	0.726	1.07	0.91	0.833
NCI-H2126	0.664	0.746	0.624	0.651	0.299	0.366	0.362	0.34	1.11	1.11	1.1	1.1	0.761	0.741	0.78	0.748	0.469	0.483	0.518	0.498
